Measurements reported in patent publication US20240093034A1, “FLUORESCENT DYES” (EXOPHARM LIMITED, priority 2020, published 2024).

Legend:
[1] = test system: PBMCs; assay: Uptake of dye 2-labelled MSC-EVs by immune cells of the mdMLR assay; format: cell-based, human; details: 5 days with dye 2-labelled MSC-EVs
Experimental: The MSC-EV preparations were stained with dye 2 of the invention according to the following protocol. Dye 2 was provided as a lyophilised powder. 1 mg of dye 2 was resuspended with 1 mL buffer to a final concentration of […]. Like CFDA-SE, the dye 2 solution was centrifuged for 10 min at 17,000 x g to reduce background noise to a minimum. Briefly, for the EV-labelling 25 μL of the MSC-EV preparations were incubated with 25 μL of a prepared, centrifuged dye 2 solution (0.2 μM) for 1 hour at 37° C. The sample was diluted 1:20 to a final volume of 1 mL prior to analysis. For EV uptake experiments dye 2-labelled MSC-EV preparations were cleared from EV unbound dye 2 by ultrafiltration. Briefly, after labelling with dye 2, the MSC-EVs were washed by via centrifugation at 12,000xg through Vivaspin 500 filters (Sartorius) for 10 min. The retentate was collected as labelled EV sample.
The immunomodulatory potential of dye 2-labelled and non-labelled MSC-EV preparations were compared in a multi-donor mixed lymphocyte reaction assay (MLR) as described previously (Madel et al., 2020, Independent human mesenchymal stromal cell-derived extracellular vesicle preparations differentially affect symptoms in an advanced murine Graft-versus-Host-Disease model. bioRxiv, 2020.2012.2021.423658). Briefly, Ficoll prepared peripheral blood mononuclear cells (PBMC) of 12 healthy donors were mixed in equal proportions, aliquoted and stored in the vapour phase of liquid nitrogen until usage. After thawing 600,000 cells were seeded per well of a 96-well U-bottom shape plates (Corning, Kaiserslautern, Germany) and cultured in 10% human AB serum (produced in house) and 100 U/mL penicillin and 100 µg/mL streptomycin (Thermo Fisher Scientific) supplemented RPMI 1640 medium (Thermo Fisher Scientific) in a final volume of 200 μL per well, either in the presence or absence of MSC-EV preparations to be tested. After 5 days, cells were harvested, stained with a collection of different fluorescent labelled antibodies (CD4-BV785; BioLegend, San Diego, CA, USA; CD25-PE-Cy5.5; BD Bioscience; and CD54-AF700; EXBIO) and analysed on a Cytoflex flow cytometer (Software CytExpert 2.3, Beckman-Coulter). Activated and non-activated CD4^+ T cells were discriminated by means of their CD25 and CD54 expression, respectively. Typically, 5 μL of MSC-EV preparations to be tested were applied into respective wells. The following antibodies were used to further discriminate subpopulations: CD8-BV650 (BioLegend), CD14-PO (EXBIO), CD19-ECD (Beckman Coulter) and CD56-APC (BioLegend). The evaluation of the data was carried out with the Kaluza software (Version 2.1, Beckman Coulter).
To investigate whether EV labelling with dye 2 of the invention allows the identification of EV-uptaking cells, the labelled EV uptake of the different immune cells within the mdMLR assay was examined. To this end, a pool of PBMCs derived from 12 healthy donors were cultured for 5 days in the presence of dye 2-labelled MSC-EVs (n=3) that had been cleared from excess dye 2 by ultrafiltration. Thereafter, cells were harvested, antibody labelled and analysed by flow cytometry. The content of dye 2-labelled cells within different PBMC subtypes was determined. […] In contrast, only proportions of the different lymphocytes appeared as dye 2 positive cells, i.e. 71% of all CD4^+ T cells (CD4^+ cells), 34% of all CD8^+ T cells (CD8^+ cells), 72% of all B cells (CD19^+ cells) and 15% of all NK cells (CD56^+ cells). […]

[2] = test system: platelet-derived EVs; assay: Labelling of extracellular vesicles with dyes (Superose 6 HPLC, UV and FLD detection); details: EV + 2 μM dye
Experimental: Labelling of extracellular vesicles (EVs) with dyes 1-10 was performed according to the following procedure. 20 μL of platelet-derived EVs were incubated in HPLC vials with or without each dye at a final concentration of 2 μM dye, the dye stock solution being made up in water. For negative controls, an equivalent volume of the diluent solution was added to the EV solution. The sample was mixed gently. Each sample was subsequently incubated for 1 hr at 37° C. Samples were transferred and stored in the autosampler set at 4° C. A batch table was setup that injected unlabelled EVs prior to labelled EVs. A blank injection was run after each labelled EV experiment to ensure there was no carryover. 15 μL of each sample was injected onto a Superose 6 Increase column (3.2/300) from Cytiva. The flow rate was set at 0.15 mL min* The Shimadzu BioHPLC was run in isocratic mode with Buffer A: 1× PBS (phosphate-buffered saline), pH 7.4, 100 nm filtered. The column oven temperature was set at 30° C. Total run duration was 30 min. Data was collected using two detectors. The PDA (UV detector) was set to scan from 190-800 nm and a channel of the FLD (fluorescence detector) was set at 562 nm/583 nm (Ex/Em). Titration experiments were conducted to confirm that excess dye was removed. The areas of the void peaks from the 214 nm absorption and the 583 nm emission were calculated by the LabSolutions software using the manual integration function. To normalise the fluorescent signal, the total fluorescent area was divided by the UV 214 nm area. This ratio can be used to rank each dye, with higher ratios indicative of greater incorporation.

SMILES: CCCCCCCCCCCCCCCCCCN(C)C(=O)c1ccccc1-c1c2ccc(=[N+](CC)CC)cc-2oc2cc(N(CC)CC)ccc12.[Cl-] [Dye 2, Rhodamine B N-methyloctadecylamide]
- dye 2 positive B cells (CD19+ cells) [1]: 72%
- dye 2 positive CD4+ T cells [1]: 71%
- dye 2 positive CD8+ T cells [1]: 34%
- dye 2 positive NK cells (CD56+ cells) [1]: 15%
- dye 2 positive monocytes (CD14+ cells) [1]: 99%
- FLD area (EV + dye) ([2]; 1 hr 37° C., void peak area, 562 nm/583 nm (Ex/Em)): 2493643
- Area FLD/Area UV (EV + dye) ([2]; higher ratio = greater incorporation): 4.50
